Reference: article PMC11339798, “Dual inhibitors of Pseudomonas aeruginosa virulence factors LecA and LasB” (Chemical Science, 2024)

Assay: Disulfide formation assay: thiol stability in P. aeruginosa culture supernatant (LC-MS)
Type: in vitro ADME
Conditions: Pseudomonas aeruginosa, pH 7.4, P. aeruginosa culture supernatant, 37 °C, read-out: thiol half-life (conversion into disulfide)
Excerpt: Disulfide formation in the presence of P. aeruginosa culture supernatant was studied for the two inhibitors 11 and 12 and analyzed by liquid chromatography-mass spectrometry (LC-MS) (Fig. 3B). Disulfides 26 and 27 were synthesized via oxidation with H2O2 in DMSO/H2O and used as reference compounds for the stability assay (Fig. 3A). […] The separation of those two peaks of the benzylated derivative 26 using preparative HPLC gave 26a and 26b (m/z of 901.28, Fig. S1 ^†).
In the presence of the bacterial culture supernatant of P. aeruginosa, the conversion of thiols 11 and 12 into the corresponding disulfides 26 and 27 was monitored at 37 °C and thiol half-lives of 48 min for 11 and 70 min for 12 were determined (Fig. 3B).
Disulfide formation assay
The stability of two thiols 11 and 12 and their ability to form the corresponding disulfides was analyzed by HPLC-MS. […] Samples were drawn over 4.5 hours and analyzed by LC-MS using a RP-18 column 100/2 Nucleoshell RP18plus, 2.7 μm from Macherey-Nagel, Germany (H2O/MeCN + 0.1% formic acid, 15 – 55% MeCN, retention time (t R) 5.8 min (11 or 12), 6.1 min and 6.3 min (disulfide products 26 or 27) on a Thermo Dionex Ultimate 3000 HPLC coupled to a Bruker amaZon SL mass spectrometer, with UV detection at 254 nm). Thiol half-lives were determined by analysis of the obtained graphs and values of 80 min for 11 and 46 min for 12 were obtained […]

Structure (SMILES)	half-life at 1.25 mM
CC(C)CC(S)C(=O)Nc1ccc(S[C@@H]2O[C@H](CO)[C@H](O)[C@H](O)[C@H]2O)cc1 (some centres unmarked) [Compound 12]	0.767 h
O=C(Nc1ccc(S[C@@H]2O[C@H](CO)[C@H](O)[C@H](O)[C@H]2O)cc1)C(S)Cc1ccccc1 (some centres unmarked) [Compound 11]	1.33 h
